Source: the NIST ThermoML archive (doi:10.1016/j.jct.2015.11.020)
Several values for one entry are separate records, joined by “and”; a condition that tells them apart may be missing. Equal entries are not always repeated.

Assay: mn = molality of the nth substance listed, in mol/kg
Settings: 100 kPa, Liquid; for speed of sound: Frequency=3 MHz, Sing-around technique in a fixed-path interferometer; for mass density: Vibrating tube method

O [water] + N[C@@H](CO)C(=O)O
m2 = 0
Settings | mass density [kg/m3] | speed of sound [m/s]
305.15 K | 995.038 | 1513.7
310.15 K | 993.328 | 1523.6
315.15 K | 991.439 | 1532.1

O [water] + CN(C)C(=N)NC(=N)N.Cl
m2 = 0
Settings | mass density [kg/m3] | speed of sound [m/s]
305.15 K | 995.038 | 1513.7
310.15 K | 993.328 | 1523.6
315.15 K | 991.439 | 1532.1

CN(C)C(=N)NC(=N)N.Cl [N,N-dimethylimidodicarbonimidic diamide hydrochloride] + O
Settings | mass density, m1 = 0.03 [kg/m3] | mass density, m1 = 0.045 [kg/m3] | mass density, m1 = 0.06 [kg/m3] | mass density, m1 = 0.09 [kg/m3] | speed of sound, m1 = 0.03 [m/s] | speed of sound, m1 = 0.045 [m/s] | speed of sound, m1 = 0.06 | speed of sound, m1 = 0.09 [m/s]
305.15 K | 996.159 | 996.716 | 997.319 | 998.393 | 1516.5 | 1518 | 1519.3 m/s and 1519.3 m/s | 1522
310.15 K | 994.44 | 994.953 | 995.586 | 996.654 | 1526.3 | 1527.7 | 1529 m/s | 1531.5
315.15 K | 992.549 | 993.115 | 993.681 | 994.744 | 1534.4 | 1535.9 | 1537.2 m/s | 1539.6

C[C@@H](O)[C@H](N)C(=O)O [L-threonine] + O
Settings | mass density, 305.15 K [kg/m3] | mass density, 310.15 K [kg/m3] | mass density, 315.15 K [kg/m3] | speed of sound, 305.15 K [m/s] | speed of sound, 310.15 K [m/s] | speed of sound, 315.15 K [m/s]
m1 = 0.09989 | 999.283 | 997.513 | 995.687 | 1521 | 1530.7 | 1538.9
m1 = 0.1997 | 1003.52 | 1001.69 | 999.928 | 1528 | 1537.5 | 1545.4
m1 = 0.2989 | 1007.74 | 1005.85 | 1004.15 | 1535 | 1544.6 | 1552
m1 = 0.3989 | 1011.99 | 1010.04 | 1008.4 | 1542.2 | 1551.1 | 1559
m1 = 0.5002 | 1016.3 | 1014.29 | 1012.7 | 1549.1 | 1558.1 | 1566
m1 = 0.5982 | 1020.46 | 1018.39 | 1016.87 | 1555.7 | 1564.8 | 1573.1
m1 = 0.6471 | 1022.54 | 1020.44 | 1018.94 | 1559 | 1567.9 | 1576.5
m1 = 0.7007 | 1024.82 | 1022.69 | 1021.22 | 1562.4 | 1571.7 | 1580.1
m1 = 0.7476 | 1026.81 | 1024.65 | 1023.22 | 1565.7 | 1575.1 | 1583.3
m1 = 0.7854 | 1028.42 | 1026.23 | 1024.82 | 1568.4 | 1577.8 | 1585.9

N[C@@H](CO)C(=O)O [L-serine] + O
Settings | mass density, 305.15 K [kg/m3] | mass density, 310.15 K [kg/m3] | mass density, 315.15 K [kg/m3] | speed of sound, 305.15 K [m/s] | speed of sound, 310.15 K [m/s] | speed of sound, 315.15 K [m/s]
m1 = 0.1012 | 999.763 | 997.637 | 995.748 | 1519.7 | 1529.4 | 1537.7
m1 = 0.1997 | 1003.99 | 1001.83 | 999.945 | 1525.5 | 1535.1 | 1543.3
m1 = 0.3 | 1008.2 | 1006.11 | 1004.22 | 1531.1 | 1540.5 | 1548.4
m1 = 0.3986 | 1012.53 | 1010.31 | 1008.42 | 1536.8 | 1546.1 | 1554
m1 = 0.4987 | 1016.75 | 1014.57 | 1012.68 | 1542.2 | 1551.4 | 1559.2
m1 = 0.6008 | 1021.43 | 1018.92 | 1017.03 | 1548 | 1556.9 | 1564.5
m1 = 0.6973 | 1025.53 | 1023.03 | 1021.14 | 1553.3 | 1562.2 | 1569.6
m1 = 0.8 | 1029.74 | 1027.41 | 1025.52 | 1558.8 | 1567.6 | 1575
m1 = 0.9003 | 1033.96 | 1031.68 | 1029.79 | 1564 | 1572.7 | 1579.9
m1 = 0.9963 | 1037.97 | 1035.77 | 1033.88 | 1569.2 | 1577.7 | 1584.9

O [water] + C[C@@H](O)[C@H](N)C(=O)O
m2 = 0
Settings | mass density [kg/m3] | speed of sound [m/s]
305.15 K | 995.038 | 1513.7
310.15 K | 993.328 | 1523.6
315.15 K | 991.439 | 1532.1
